Reference: patent publication US8742123B2, “HIV integrase inhibitors from pyridoxine” (TaiMed Biologics, Inc., priority 2008, dated 2014)
pEC50, pIC50, pKi: −log10 of the molar value. Read-outs that look alike come from different tables or passages of the source.

Assays:
HIV-1 isolate 94US33931N = experiment: acute infection assay in PHA-stimulated PBMCs, supernatant RT activity; assay type: cell-based; settings: Human immunodeficiency virus 1, PBMC, 144 h, 6 day incubation
Procedure: (§1) Acute infection assays using fresh human phytohemagglutinin (PHA)-stimulated peripheral blood mononuclear cells (PBMCs) were carried out. PBMCs were stimulated with IL-2 and infected with one of two wild-type drug-sensitive clinical HIV-1 isolates. The strains HIV-1 used for the infections, 91US005 (primary R5 strain of HIV-1) and 94US33931N, are both Group M, Subtype B viruses. Antiviral activity was determined as a reduction in supernatent reverse transcriptase (RT) activity after a 6 day incubation.

HIV-1 isolate 91US005 = experiment: as above; assay type: cell-based; settings: Human immunodeficiency virus 1, PBMC, 144 h, HIV-1 isolate 91US005, 6 day incubation
Procedure: as §1

[1] = target: T1, recombinant HIV-1 integrase (Human immunodeficiency virus type 1 group M subtype B, UniProt P12497); experiment: integrase strand transfer assay; assay type: biochemical; settings: compounds added after assembly, 10% DMSO, read-out: ST IC50
T1 construct: Recombinant integrase (250 ng/well) was assembled onto the immobilized donor oligonucleotide
Procedure: IC50 was determined for the compounds of the inventions based on data generated in strand transfer assays. The IC50 is a measure of the ability of the compounds tested to inhibit the integration of 3′-processed oligonucleotides by recombinant HIV-1 integrase.
Strand transfer assays were performed essentially as described in Hazuda, D. J.; Felock, P.; Hastings, J. C.; Pramanik, B.; Wolfe, A. J. Virol. 1997, 71, 7005-7011). Donor DNA (1.5 pmol/well), biotinylated on the 5′ end of the strand processed by integrase, was immobilized onto streptavidin-coated microtiter plates. Recombinant integrase (250 ng/well) was assembled onto the immobilized donor oligonucleotide in reaction buffer (20 mM Hepes, pH 7.6, 5 mM B-mercaptoethanol, 50 ug/mL bovine serum albumin) containing 30 mM MnCl2. Excess enzyme was removed, and the complexes were washed extensively prior to the addition of the target DNA substrate. The target DNA (0.75 pmoles/well) substrate was labeled on each 3′ end with FITC. After strand transfer, the FITC-labeled products were detected using an anti-FITC antibody conjugated with alkaline phosphatase (Roche) and a chemiluminescent substrate (Tropix CSPD with Sapphire II enhancer, Applied Biosystems). The assay was performed in a final concentration of 10% DMSO. To specifically evaluate inhibition of strand transfer, compounds were added after assembly, just prior to the addition of the target DNA.
The results of the integrase strand transfer assay are reported as IC50 values. IC50 values were determined using a sigmoidal dose-response equation. The formula used for calculating % inhibition was: % Inhibition=[1-(sample counts/average of positive control)]*100. […] Using GraphPad Prism or ActivityBase (IDBS) software IC50 was determined using following sigmoidal dose-response equation: Y=(A+((B−A)/(1+((C/X)^D))))

wild type NL-4.3 = experiment: multi-cycle infection assay in MT-4 cells (MTT cytoprotection); assay type: cell-based, HIV-1; settings: Human immunodeficiency virus 1, MT4, 144 h, read-out: EC50 (nM) multi-cycle
Procedure: The antiviral efficacies of the integrase inhibitor compounds of the invention were evaluated based on EC50 measures obtained from two different in vitro HIV infection assay using cultured MT-4 cells: (1) a multi-cycle infection where cells were infected with wild type NL-4.3) and (2) a single-cycle infection where the cells were infected with a luciferase-bearing, envelope defective (env-) NL-4.3 virus pseudotyped with HIV-1 env (HXBc2.
The incubation period for the multi-cycle infection assay was 6 days. Cell viability (cytoprotection) and EC50 were determined using the colorimetric MTT assay (A. J. Japour et al, Antimicrobial Agents and Chemotherapy, 37, 1095-1101, 1993 and R. Pauwels et al. Journal of Virological Methods, 20, 309-321, 1988).

[2] = human liver microsome stability; assay type: in vitro ADME; settings: pH 7.4, 1 μM compound
Procedure: After pre-incubation, the assay was started by the addition of 1 μM of compound. Samples were taken after 0, 15, 30, 60, 90 and 120 minutes of incubation (Fisher M B, Drug Metabolism and Disposition, 2000, 28, 560-566). GraphPad Prism software was used for data analysis. The results, showing that the compounds of the invention are metabolically stable in Human liver microsomes, are provided in Table 7 below.

CYP3A4 = target: T2, CYP3A4 (Homo sapiens, UniProt P08684); experiment: human CYP inhibition in human liver microsomes; assay type: in vitro ADME; settings: CYP3A4 (printed CYP34A)
T2 construct: the incubation medium contained 0.3 mg/mL human liver microsomes; from tissue; host or cells: human liver microsomes
T2 sequence (P08684 whole entry): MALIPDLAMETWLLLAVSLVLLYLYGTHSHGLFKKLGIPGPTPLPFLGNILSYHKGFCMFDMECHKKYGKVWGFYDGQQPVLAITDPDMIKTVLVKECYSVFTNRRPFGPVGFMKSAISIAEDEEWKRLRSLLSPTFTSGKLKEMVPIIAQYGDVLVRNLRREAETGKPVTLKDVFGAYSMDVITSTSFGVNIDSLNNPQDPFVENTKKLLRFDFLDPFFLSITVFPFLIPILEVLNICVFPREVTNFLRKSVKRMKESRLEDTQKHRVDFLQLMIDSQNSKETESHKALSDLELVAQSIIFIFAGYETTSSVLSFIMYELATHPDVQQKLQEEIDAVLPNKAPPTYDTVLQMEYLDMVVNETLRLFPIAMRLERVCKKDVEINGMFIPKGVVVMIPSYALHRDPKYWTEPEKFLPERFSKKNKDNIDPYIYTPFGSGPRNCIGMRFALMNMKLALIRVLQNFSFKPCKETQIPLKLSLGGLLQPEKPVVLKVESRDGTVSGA
Procedure: (§2) For the human CYP inhibition experiments, the incubation medium contained 0.3 mg/mL human liver microsomes, 100 mM phosphate buffer pH 7.4, 5 mM MgCl2, 1 mM EDTA. The respective substrates for CYP3A4, CYP2C9 and CYP2D6 were added at various concentrations in the presence or absence of the compounds tested. After pre-incubation, the reaction was initiated by the addition of NADPH at final concentration 1 mM. Incubation times were 10, 60 and 15 minutes for CYP3A4, CYP2C9 and CYP2D6, respectively (Walsky R L and Obach R S., Drug Metabolism and Disposition, 2004, 32, 647-660). GraphPad Prism software was used for data analysis.

[3] = protein binding by Rapid Equilibrium Dialysis (RED), human serum; assay type: in vitro ADME; settings: 37° C., 100% HS
Procedure: (§3) Protein binding was tested by Rapid Equilibrium Dialysis (RED) method (The RED (Rapid equilibrium Dialysis) Device inserts instruction manual. Pierce, Rockford Ill.). […] The red chamber was loaded with 0.3 mL of samples containing compounds. The white chamber contained 0.5 mL of D-PBS buffer only. The plate was incubated at 37° C. while shaking at 150 rpm for 5 hours. Aliquots from both chambers were analyzed by LC/MS/MS. The multi-cycle antiviral activity in the absence and presence of human serum was determined by p24 ELISA measurement after 6 days of NL4.3 virus infection.

[4] = protein binding by Rapid Equilibrium Dialysis (RED), 10% FBS-RPMI; assay type: in vitro ADME; settings: bovine, 37° C.
Procedure: as §3

[5] = pharmacokinetic (PK) profile in rats; assay type: in vivo; settings: female Sprague-Dawley rats, 5 mg/kg intravenously, 50 mg/kg orally, plasma LC/MS/MS
Procedure: Female Sprague-Dawley rats were randomly selected and assigned to two groups. A group of 13 rats were administered 5 mg/kg of compound 2 intravenously. A second group of 8 rats were administered 50 mg/kg of compound 2 orally. Following the dosing, blood was collected at 7 different time points. Plasma samples obtained from the blood samples were analyzed by LC/MS/MS and the bioavailability of compound 2 was determined.

NL4.3 virus = experiment: multi-cycle antiviral activity in absence and presence of human serum, p24 ELISA; assay type: cell-based, HIV-1; settings: for EC50: Human immunodeficiency virus 1, 144 h
Procedure: as §3

CYP2C9 = target: T3, CYP2C9 (Homo sapiens, UniProt P11712); experiment: human CYP inhibition in human liver microsomes; assay type: in vitro ADME
T3 construct: the incubation medium contained 0.3 mg/mL human liver microsomes; from tissue; host or cells: human liver microsomes
T3 sequence (P11712 whole entry): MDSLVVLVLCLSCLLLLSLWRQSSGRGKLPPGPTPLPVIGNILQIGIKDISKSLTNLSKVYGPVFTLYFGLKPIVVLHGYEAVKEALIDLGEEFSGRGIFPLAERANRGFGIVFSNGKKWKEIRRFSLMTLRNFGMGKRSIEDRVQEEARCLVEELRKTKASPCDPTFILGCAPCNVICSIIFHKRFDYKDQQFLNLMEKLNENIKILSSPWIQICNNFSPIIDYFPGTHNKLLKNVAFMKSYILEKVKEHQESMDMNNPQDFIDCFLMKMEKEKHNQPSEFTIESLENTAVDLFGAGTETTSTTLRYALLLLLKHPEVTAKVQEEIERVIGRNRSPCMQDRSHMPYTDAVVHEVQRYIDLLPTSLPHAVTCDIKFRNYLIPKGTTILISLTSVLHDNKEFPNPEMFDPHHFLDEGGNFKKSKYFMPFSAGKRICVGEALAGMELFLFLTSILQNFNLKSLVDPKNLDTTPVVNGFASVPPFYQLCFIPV
Procedure: as §2

[6] = MT-4 cells, wild type NL-4.3, 6 days, MTT
[7] = human liver microsomes, 1 mM NADPH and 1 mM UDPGA, read-out: Half-life in HLM (hrs) NADPH/UDPGA (converted)
[8] = human liver microsomes, 1 mM NADPH, read-out: Half-life in HLM (hrs) NADPH (converted)
[9] = human liver microsomes, 1 mM UDPGA, read-out: Half-life in HLM (hrs) UDPGA (converted)

Structure (SMILES)	pEC50 (HIV-1 isolate 94US33931N)	pEC50 (HIV-1 isolate 91US005)	pIC50 [1]	EC50 (wild type NL-4.3; [6]) [nM]	half-life at 1 μM [2, 7] [h]	half-life at 1 μM [2, 8] [h]	half-life at 1 μM [2, 9] [h]	other results
Cc1cn([C@H]2C[C@H](N=[N+]=[N-])[C@@H](CO)O2)c(=O)[nH]c1=O [Retrovir (AZT), 3-Azido-3-deoxythymine (Zidovudine), reference compound]	8.52	8.22	–	–	–	–	–	–
O=C(NO)c1ncc(COCc2ccccc2)c(CO)c1O [Example 18, 5-(Benzyloxymethyl)-N,3-dihydroxy-4-(hydroxymethyl)picolinamide]	–	–	7.06	86	–	–	–	–
O=C(NCc1ccc2c(c1)OCO2)c1cnc(C(=O)NOCc2ccccc2)c(OCc2ccccc2)c1CO [Example 3, N^5-(benzo[d][1,3]dioxol-5-ylmethyl)-N2,3-bis(benzyloxy)-4-(hydroxymethyl)pyridine-2,5-dicarboxamide]	7.52	7.03	–	> 10000	1.95	6.18	3.8	pKi (CYP3A4): 3.23
O=C(NCc1ccc(F)cc1)c1cnc(C(=O)NO)c(O)c1CO [Example 2, N^5-(4-fluorobenzyl)-N^2,3-dihydroxy-4-(hydroxymethyl)pyridine-2,5-dicarboxamide]	6.91	7.12	6.52	358	5.9	5	16	fraction unbound at 5 hours, 1 uM ([3]; human serum (100%)): 0.155; fraction unbound at 5 hours, 1 uM ([4]; 10% FBS-RPMI): 0.681; adsorption / PK profile (FIG. 1) [5]: high adsorption
O=C(NCc1ccc(F)c(Cl)c1)c1cnc(C(=O)NO)c(O)c1CO [Example 14, N^5-(3-chloro-4-fluorobenzyl)-N2,3-dihydroxy-4-(hydroxymethyl)pyridine-2,5-dicarboxamide]	–	–	7.57	123	–	–	–	–
Cc1nnc(C(=O)NC(C)(C)c2nc(C(=O)NCc3ccc(F)cc3)c(O)c(=O)n2C)o1 [Raltegravir, reference compound]	–	–	–	–	–	–	–	fraction unbound at 5 hours, 1 uM ([3]; serum): 0.133; EC50 (NL4.3 virus; read-out: EC50 (uM) 10% FBS): 0.047 µM; EC50 (NL4.3 virus; read-out: EC50 (uM) 10% FBS + 40% HS): 0.064 µM; fraction unbound at 5 hours, 1 uM ([4]; serum): 0.653; half-life at 1 μM ([2]; microsomes, 1 mM NADPH and 1 mM UDPGA, read-out: Half-life in HLM (hrs) NADPH/UDPGA (converted)): 11 h; half-life at 1 μM ([2]; microsomes, 1 mM NADPH, read-out: Half-life in HLM (hrs) NADPH (converted)): 19.7 h; half-life at 1 μM ([2]; microsomes, 1 mM UDPGA, read-out: Half-life in HLM (hrs) UDPGA (converted)): 7.03 h; EC50 (wild type NL-4.3): 20 nM
O=C(NCc1ccc(F)cc1)c1cnc(C(=O)NOCc2ccccc2)c(OCc2ccccc2)c1CO [Example 1, N^2,3-bis(benzyloxy)-N^5-(4-fluorobenzyl)-4-(hydroxymethyl)pyridine-2,5-dicarboxamide]	–	–	–	> 10000	3.9	7.4	19.7	fraction unbound at 5 hours, 1 uM ([3]; human serum (100%)): 0.11; Fold-change with HS (NL4.3 virus; EC50 with 40% HS versus 10% FBS): 2.1; EC50 (NL4.3 virus; 10% FBS + 40% HS, p24 ELISA after 6 days, read-out: EC50 (uM) 10% FBS + 40% HS): 0.481 µM; EC50 (NL4.3 virus; 10% FBS, p24 ELISA after 6 days, read-out: EC50 (uM) 10% FBS): 0.227 µM; fraction unbound at 5 hours, 1 uM ([4]; 10% FBS-RPMI): 0.475; pKi (CYP3A4): 5.29; pKi (CYP2C9): 4.20
